# Assay results from article PMC10794144, “A novel antibiotic class targeting the lipopolysaccharide transporter” (Nature, 2024).
# Where two headings read alike, the source gives them in different places.
# System: A. baumannii
# Assay: microbe, parasite or virus in culture
# Conditions: Acinetobacter baumannii, 100%
# In short: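 Broth microdilution per CLSI M07/M100, with inocula diluted from a 0.5 McFarland suspension in CAMHB, or LB for A. baylyi. MIC was read as the lowest concentration inhibiting growth by eye or beyond which OD600 stopped decreasing.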
structure (smiles),measurement,setting,value
"C[C@@H](O)[C@H]1C(=O)N2C(C(=O)O)=C(S[C@@H]3CN[C@H](C(=O)N(C)C)C3)[C@H](C)[C@H]12 [meropenem, reference compound]",MIC,"read-out: MIC 100%, ROB08701, Study LGC284200",32 µg/mL
same,MIC,"read-out: MIC 100%, ROB08701, Study LGC284879",1 µg/mL
same,MIC,"read-out: MIC 100%, ROB08701, Study LGC285582",1 µg/mL
same,MIC,"read-out: MIC 100%, ROB08701, Study LGC286210",1 µg/mL
same,MIC,"read-out: MIC 100%, ROB08701, Study LGC293598",2 µg/mL
same,MIC,"read-out: MIC 100%, ROB08701, Study LGC294355",1 µg/mL
same,MIC,"read-out: MIC 100%, ROB08701, Study LGC295147",1 µg/mL
same,MIC,"read-out: MIC 100%, ROB08701, Study LGC296813",2 µg/mL
same,MIC,"read-out: MIC 100%, ROB08701, Study LGC299544",1 µg/mL
same,MIC,"read-out: MIC 100%, ROB08701, Study LGC301026",1 µg/mL
same,MIC,"read-out: MIC 100%, ROB08701, Study LGC308175",1 µg/mL
same,MIC,"read-out: MIC 100%, ROB08701, Study ROC003",1 µg/mL
same,MIC,"read-out: MIC 100%, ROB08701, Study ROC004",1 µg/mL
same,MIC,"read-out: MIC 100%, ROB08701, Study ROC005",1 µg/mL
same,MIC,"read-out: MIC 100%, ROB08701, Study ROC006",1 µg/mL
same,MIC,"read-out: MIC 100%, ROB08701, Study ROC007",1 µg/mL
same,MIC,"read-out: MIC 100%, ROB08701, Study ROC008",1 µg/mL
same,MIC,"read-out: MIC 100%, ROB08701, Study ROC009",1 µg/mL
same,MIC,"read-out: MIC 100%, ROB08701, Study ROC010",1 µg/mL
same,MIC,"read-out: MIC 100%, ROB08701, Study ROC012",0.5 µg/mL
same,MIC,"read-out: MIC 100%, ROB08701, Study ROC013",1 µg/mL
same,MIC,"read-out: MIC 100%, ROB08702, Study LGC277937",32 µg/mL
same,MIC,"read-out: MIC 100%, ROB08702, Study LGC279800",32 µg/mL
same,MIC,"read-out: MIC 100%, ROB08702, Study LGC281440",16 µg/mL
same,MIC,"read-out: MIC 100%, ROB08702, Study LGC282160",64 µg/mL
same,MIC,"read-out: MIC 100%, ROB08702, Study LGC282623",32 µg/mL
same,MIC,"read-out: MIC 100%, ROB08702, Study LGC283932",32 µg/mL
same,MIC,"read-out: MIC 100%, ROB08702, Study LGC284200",32 µg/mL
same,MIC,"read-out: MIC 100%, ROB08702, Study LGC284879",8 µg/mL
same,MIC,"read-out: MIC 100%, ROB08702, Study LGC285582",32 µg/mL
same,MIC,"read-out: MIC 100%, ROB08702, Study LGC286210",32 µg/mL
same,MIC,"read-out: MIC 100%, ROB08702, Study LGC293598",32 µg/mL
same,MIC,"read-out: MIC 100%, ROB08702, Study LGC294355",16 µg/mL
same,MIC,"read-out: MIC 100%, ROB08702, Study LGC295147",16 µg/mL
same,MIC,"read-out: MIC 100%, ROB08702, Study LGC296813",16 µg/mL
same,MIC,"read-out: MIC 100%, ROB08702, Study LGC299544",32 µg/mL
same,MIC,"read-out: MIC 100%, ROB08702, Study LGC301026",16 µg/mL
same,MIC,"read-out: MIC 100%, ROB08702, Study LGC308175",32 µg/mL
same,MIC,"read-out: MIC 100%, ROB08702, Study ROC003",16 µg/mL
same,MIC,"read-out: MIC 100%, ROB08702, Study ROC004",32 µg/mL
same,MIC,"read-out: MIC 100%, ROB08702, Study ROC005",32 µg/mL
same,MIC,"read-out: MIC 100%, ROB08702, Study ROC006",64 µg/mL
same,MIC,"read-out: MIC 100%, ROB08702, Study ROC007",32 µg/mL
same,MIC,"read-out: MIC 100%, ROB08702, Study ROC008",16 µg/mL
same,MIC,"read-out: MIC 100%, ROB08702, Study ROC009",16 µg/mL
same,MIC,"read-out: MIC 100%, ROB08702, Study ROC010",32 µg/mL
same,MIC,"read-out: MIC 100%, ROB08702, Study ROC012",32 µg/mL
same,MIC,"read-out: MIC 100%, ROB08702, Study ROC013",32 µg/mL
same,MIC,"read-out: MIC 100%, ROB08703, Study LGC277937",64 µg/mL
same,MIC,"read-out: MIC 100%, ROB08703, Study LGC279800",> 64 µg/mL
same,MIC,"read-out: MIC 100%, ROB08703, Study LGC281440",64 µg/mL
same,MIC,"read-out: MIC 100%, ROB08703, Study LGC282160",64 µg/mL
same,MIC,"read-out: MIC 100%, ROB08703, Study LGC282623",64 µg/mL
same,MIC,"read-out: MIC 100%, ROB08703, Study LGC283932",> 64 µg/mL
same,MIC,"read-out: MIC 100%, ROB08703, Study LGC284200",64 µg/mL
same,MIC,"read-out: MIC 100%, ROB08703, Study LGC284879",> 64 µg/mL
same,MIC,"read-out: MIC 100%, ROB08703, Study LGC285582",> 64 µg/mL
same,MIC,"read-out: MIC 100%, ROB08703, Study LGC286210",64 µg/mL
same,MIC,"read-out: MIC 100%, ROB08703, Study LGC293598",> 64 µg/mL
same,MIC,"read-out: MIC 100%, ROB08703, Study LGC294355",64 µg/mL
same,MIC,"read-out: MIC 100%, ROB08703, Study LGC295147",64 µg/mL
same,MIC,"read-out: MIC 100%, ROB08703, Study LGC296813",64 µg/mL
same,MIC,"read-out: MIC 100%, ROB08703, Study LGC299544",> 64 µg/mL
same,MIC,"read-out: MIC 100%, ROB08703, Study LGC301026",64 µg/mL
same,MIC,"read-out: MIC 100%, ROB08703, Study LGC308175",64 µg/mL
same,MIC,"read-out: MIC 100%, ROB08703, Study ROC003",64 µg/mL
same,MIC,"read-out: MIC 100%, ROB08703, Study ROC004",64 µg/mL
same,MIC,"read-out: MIC 100%, ROB08703, Study ROC005",> 64 µg/mL
same,MIC,"read-out: MIC 100%, ROB08703, Study ROC006",64 µg/mL
same,MIC,"read-out: MIC 100%, ROB08703, Study ROC007",> 64 µg/mL
same,MIC,"read-out: MIC 100%, ROB08703, Study ROC008",64 µg/mL
same,MIC,"read-out: MIC 100%, ROB08703, Study ROC009",64 µg/mL
same,MIC,"read-out: MIC 100%, ROB08703, Study ROC010",64 µg/mL
same,MIC,"read-out: MIC 100%, ROB08703, Study ROC012",64 µg/mL
same,MIC,"read-out: MIC 100%, ROB08703, Study ROC013",> 64 µg/mL
same,MIC,"read-out: MIC 100%, ROB08704, Study LGC277937",64 µg/mL
same,MIC,"read-out: MIC 100%, ROB08704, Study LGC279800",64 µg/mL
same,MIC,"read-out: MIC 100%, ROB08704, Study LGC281440",32 µg/mL
same,MIC,"read-out: MIC 100%, ROB08704, Study LGC282160",32 µg/mL
same,MIC,"read-out: MIC 100%, ROB08704, Study LGC282623",64 µg/mL
same,MIC,"read-out: MIC 100%, ROB08704, Study LGC283932",32 µg/mL
same,MIC,"read-out: MIC 100%, ROB08704, Study LGC284200",32 µg/mL
same,MIC,"read-out: MIC 100%, ROB08704, Study LGC284879",64 µg/mL
same,MIC,"read-out: MIC 100%, ROB08704, Study LGC285582",32 µg/mL
same,MIC,"read-out: MIC 100%, ROB08704, Study LGC286210",64 µg/mL
same,MIC,"read-out: MIC 100%, ROB08704, Study LGC293598",32 µg/mL
